Measured values published in PubChem BioAssay AID1013 (Columbia University Molecular Screening Center, 2008).
Calls of active or inactive are those of the source. No rule for the calls is given here.

Assay: inhibitors of TNFa-induced VCAM1 expression, confirmation, imaging, TNFa stimulus, retest and dose response (AID 1013);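 as to cell count: compound on cells 1 h before TNFa then 24 h more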
Conditions: TNFa-stimulated cells, VCAM1 expression imaging; at 2 µM; stronger effect = higher value

SMILES | inhibition
COc1ccc(S(=O)(=O)Nc2nc3n(n2)C(c2ccc(Cl)cc2)CC(=O)N3)cc1 (centres undefined) | -17.4% (inactive)
Cc1ccn2c(NC(=O)c3ccco3)c(-c3ccccc3)nc2c1 | 3.4% (inactive)
CCOc1ccc2ccccc2c1/C=N/n1cncn1 | 2.4% (inactive)
O=C(NC(Cc1c[nH]c2ccccc12)C(=O)O)c1ccco1 (centres undefined) | -11.2% (inactive)
CCOc1ccc(N2C(=O)CSC2c2ccncc2)cc1 (centres undefined) | 0% (inactive)
COc1ccc(NC(=O)N2CCn3c2nc2ccccc23)cc1 | 13% (inactive)
CCOC(=O)c1cnc(-n2nc(C)cc2C)nc1N1CCOCC1 | 0.6% (inactive)
CC1(C)Cc2c(oc3ncn4ncnc4c23)CO1 | -8% (inactive)
COc1cccc(OC)c1NC(=O)CN1CCC(NC(=O)c2cccc(F)c2)CC1 | 6.5% (inactive)
Cn1nc(C(=O)OCC(=O)N2CCc3ccccc32)c2ccccc2c1=O | 4.8% (inactive)
COC(=O)Sc1nc(N2CCOCC2)c2c(c1C#N)CC(C)(C)OC2 | -5.9% (inactive)
O=C(NC1CC1)c1ccc(S(=O)(=O)NCC2CCCCC2)cc1 | 7.4% (inactive)
CCOc1cc(S(=O)(=O)Nc2ccccc2CC)ccc1Cl | -2.9% (inactive)
COc1ccccc1-c1cn(S(=O)(=O)c2ccc(C)cc2)nc1N | 2.2% (inactive)
COc1cc(NC(=O)CN2C(=O)NC(C)(CC(C)C)C2=O)cc(OC)c1 (centres undefined) | 11.6% (inactive)
COC(=O)c1cccc(S(=O)(=O)N(Cc2ccco2)Cc2cc3ccc(OC)cc3[nH]c2=O)c1 | -3.6% (inactive)
CSc1nc2nccc(-c3ccc(Oc4ccccc4)cc3)n2n1 | -5.9% (inactive)
COC1(c2ccccc2)NC(=S)NN=C1c1ccccc1 (centres undefined) | -8.1% (inactive)
C/C(Cl)=C\Cn1c(NCCCn2ccnc2)nc2c1c(=O)n(C)c(=O)n2C | 4.7% (inactive)
COc1ccc(Nc2nc(N3CCCC3)nc3ccccc23)c(OC)c1 | 12.2% (inactive)
Cn1c(CNc2ccccc2O)nc2ccccc21 | 11.9% (inactive)
CCn1c(SCC(=O)Nc2cc(C)on2)nnc1-c1ccccc1 | -7.4% (inactive)
COC(=O)c1c(NC(=O)c2ccc(S(=O)(=O)N3CCOCC3)cc2)sc2c1CCN(C)C2 | -5.4% (inactive)
O=c1c2ccccc2nnn1CSc1ncnc2ccccc12 | 15.2% (inactive)
Cc1cc(C)cc(OCC(=O)Nc2nonc2NC(=O)COc2cc(C)cc(C)c2)c1 | 12.1% (inactive)
O=C(Oc1ccc2ccc(=O)oc2c1)N1CCOCC1 | 1.4% (inactive)

SMILES | inhibition
Cc1nc(S(=O)(=O)N(C)Cc2ccccc2)c(C#N)c(C)c1Cl | 1.7% (inactive)
CCCOC(=O)c1ccc(NC(=O)Oc2ccccc2)cc1 | -2.5% (inactive)
C=C1N2CCC(CC2)C1(O)c1ccccc1C (centres undefined) | -7.5% (inactive)
COc1ccc(-c2cc(C(=O)Nc3cc(C)n(Cc4ccc(Cl)cc4)n3)no2)cc1OC | 11.7% (inactive)
C=CCn1c(N)c(C(=O)OCC(C)C)c2nc3ccccc3nc21 | -3.5% (inactive)
Cc1ccccc1Cn1nc(C)c(NC(=O)c2cc(-c3cccs3)on2)c1C | -4.7% (inactive)
CCN(CC)S(=O)(=O)c1ccc(NC(=O)C(C)N(c2ccc(OC)cc2)S(C)(=O)=O)cc1 (centres undefined) | -3.6% (inactive)
CCOC(=O)Cc1csc(NC(=O)COc2ccc(N(C)S(=O)(=O)c3ccc(C)cc3)cc2)n1 | -1.3% (inactive)
CCC(C)C1C(C#N)=C(N)Oc2n[nH]c(-c3ccccc3)c21 (centres undefined) | -12.6% (inactive)
CCn1c(SCC(=O)Nc2ccc(C(=O)OC)cc2)nnc1-c1cccs1 | 10.1% (inactive)
O=C(O)c1cccc(S(=O)(=O)Nc2ccccc2Cl)c1 | -5.6% (inactive)
COc1ccccc1-n1cnc2cc(NCc3cccs3)ccc21 | -3.5% (inactive)
COc1ccc(OC)c(C2CC(=O)c3c([nH]c(C(=O)OC(C)C)c3C)C2)c1 (centres undefined) | 35.5% (inactive)
CCn1c(CN2CCN(c3ccc(Cl)cc3)CC2)nc2ccccc21 | 23.2% (inactive)
COC(=O)CSc1nc2nc(C)c(Br)cc2[nH]1 | -12.6% (inactive)
CSc1ccc(CNC2CN3CCC2CC3)cc1 (centres undefined) | 6.9% (inactive)
Cn1nc(C(=O)NCC2CCCO2)c2ccccc2c1=O (centres undefined) | -9% (inactive)
O=C(c1ccc2c(c1)ncn2C1CCCCC1)N1CCC2(CC1)OCCO2 | 4.9% (inactive)
CCOC(=O)c1cnn(-c2nc(CC)nc3sc4c(c23)CCC4)c1N | -10.3% (inactive)
O=C1C2CCCN2C(c2cccnc2)N1c1ccc(Cl)c(Cl)c1 (centres undefined) | -2.6% (inactive)
O=C1CCSc2cccc3cccc(c23)N1 | 2.8% (inactive)
O=C(Nc1ccccc1)c1nnsc1S(=O)(=O)c1ccc(Cl)cc1 | 20.4% (inactive)
COc1ccc(-c2nnc(SCC(=O)NC3CCCCC3)o2)cc1OC | -4.1% (inactive)
COc1ccc(C(C)(C)C)cc1S(=O)(=O)N1CCN(C)CC1 | -3.3% (inactive)
C=CCOC(=O)C1=C(C)OC(N)=C(C#N)C12C(=O)N(CN1CCOCC1)c1ccccc12 (centres undefined) | -12.1% (inactive)
O=C(/C(=C/c1ccc(Cl)cc1)c1nc2ccccc2[nH]1)c1cccs1 | 32.1% (inactive)

SMILES | inhibition
COc1ccc(CSc2nc3ccccc3[nH]2)cc1 | -2.5% (inactive)
N#Cc1c(NCc2ccccc2)ccnc1NCc1cccnc1 | -17.4% (inactive)
Cc1ccccc1-c1cc(-c2ccccc2O)on1 | 25.2% (inactive)
CCn1c(SCC(=O)NC(C)c2ccccc2)nc2ccccc21 (centres undefined) | -13.3% (inactive)
CC(=O)Nc1nc2cc3c(cc2s1)OCO3 | -1.4% (inactive)
CCOC(=O)c1ccc(NC(=O)Cn2nnc(-c3ccccc3)n2)cc1 | -10% (inactive)
CCOC(=O)Cc1cc(-c2ccc(O)cc2)nc2ccc3ccccc3c12 | 35.9% (inactive)
O=[N+]([O-])c1ccc(/C=N/n2c(COc3ccccc3)n[nH]c2=S)cc1 | -9.2% (inactive)
CN=c1sc2ccccc2n1CC(O)COc1ccccc1 (centres undefined) | -13.2% (inactive)
Cc1cc(C)cc(NC(=O)CC2NCCNC2=O)c1 (centres undefined) | 7.4% (inactive)
COc1ccccc1N(C)S(=O)(=O)c1ccc(C(=O)NCC(C)C)cc1 | -6.5% (inactive)
CCOC(=O)Cn1nnnc1CN(CCc1ccccc1)Cc1cc2cc(CC)ccc2[nH]c1=O | 3.3% (inactive)
O=c1ccc(Oc2nc(N3CCOCC3)nc(N3CCOCC3)n2)nn1-c1ccccc1 | 9% (inactive)
O=C(O)c1ccccc1Nc1ccccc1C(=O)O | 0.6% (inactive)
Cc1ccc(S(=O)(=O)Nc2cc(C(=O)NCCN3CCCC3)ccc2N2CCCCC2)cc1 | -2.2% (inactive)
CC(C)C(=O)Nc1ccc(C(=O)NNC(=O)NC2CCCCC2)cc1 | -6.3% (inactive)
CCN(Cc1cc2cc(C)ccc2[nH]c1=O)C(=O)c1cccc(OC)c1 | -11.5% (inactive)
Cc1cc(N2CCOCC2)c2c(N)c(C)cc(C)c2n1 | -11% (inactive)
Cn1c(SCC(=O)NC2CCCCC2)nnc1-c1cccc(N)c1 | 4.3% (inactive)
CCOC(=O)c1cnn(-c2nc3c(C)cccc3s2)c1C | 11% (inactive)
COc1ccc(OC)c2sc(NC(=O)CCS(=O)(=O)c3ccccc3)nc12 | 23% (inactive)
O=C(NCc1ccco1)c1ccc(CS(=O)(=O)Cc2ccc(Cl)cc2)o1 | -2.1% (inactive)
CCOC(=O)c1ccc(NS(=O)C23CC4CC(CC(C4)C2)C3)cc1 (centres undefined) | -13.9% (inactive)
COc1cc(C2Nc3ccc4ncccc4c3C3=C2C(=O)CCC3)cc(OC)c1O (centres undefined) | -11.9% (inactive)
CCN(CC)C(=O)CN(c1ccc(Cl)cc1)S(=O)(=O)c1ccccc1 | -3.1% (inactive)
C=CC(=O)Nc1ccc(Br)cc1 | -8.4% (inactive)

SMILES | inhibition
CC(C)Sc1nc2c(c(=O)n1-c1ccc(F)cc1)SCC2 | 7.4% (inactive)
C=CCOc1c2ccc(C(=O)NCc3ccccc3OC)cc2nn1C | 4.3% (inactive)
O=C(NCc1ccco1)c1cc(-c2ccc(Cl)cc2)on1 | -6.2% (inactive)
Cc1cc(OCc2ccc(F)cc2)nc(-c2ccccc2O)n1 | -12.1% (inactive)
O=C(C1CCC1)N1CCc2cc(S(=O)(=O)Nc3ccc4c(c3)OCCO4)ccc21 | -2.3% (inactive)
Cc1cccc(OCCN2CSC(=S)N(C)C2)c1 | -5.7% (inactive)
O=[N+]([O-])c1cnccc1Nc1ccc(F)cc1 | 15.4% (inactive)
CCc1nc2oc3ccccc3c(=O)c2c(=O)n1CCOC | -0.1% (inactive)
NCCN1CCN(CCN)CC1 | -8.3% (inactive)
COc1ccc(Cn2nnnc2C(c2cccs2)N2CCSCC2)cc1 (centres undefined) | -1.3% (inactive)
Cc1cc(C)n(-c2nc(-c3cccc(Cl)c3)cs2)n1 | 2.2% (inactive)
FC(F)(F)c1cc(-c2ccc3c(c2)OCO3)nc(NCc2ccco2)n1 | 16.2% (inactive)
Cn1c(NCc2c[nH]c3ccccc23)nc2ccccc21 | 18% (inactive)
COc1ccc(C)cc1S(=O)(=O)Nc1cccc(SC)c1 | 3.5% (inactive)
C=CCCCOc1ccc(C(=O)O)cc1 | 8.3% (inactive)
Cc1ccc(NC(=O)Cn2nnc(-c3ccccc3NC(=O)c3cccs3)n2)cc1 | 9.2% (inactive)
NC(=O)c1c(NC(=O)Cc2cccs2)sc2c1CCC2 | -16.5% (inactive)
COc1ccc(Cn2c(CCC(=O)O)nc3cccnc32)cc1 | 1.7% (inactive)
Cc1cnc(NC(=O)C2CCCC2)s1 | 14.1% (inactive)
CCC(=O)N1c2ccc(S(=O)(=O)CCC(=O)N3CCn4c3nc3ccccc34)cc2CC1C (centres undefined) | -14.1% (inactive)
COc1cccc(CSc2nc3ccccc3cc2C=O)c1 | 43.3% (inactive)
COc1ccc(CN2C(=O)[C@@H]3C(c4ccc(F)cc4)=NO[C@@H]3C2=O)cc1 | -6.1% (inactive)
Cc1cccc(N=C2NC(=O)CS2)c1C | -7.6% (inactive)

Same assay, conditions: TNFa-stimulated cells, VCAM1 expression imaging; cell count; at 10 µM; stronger effect = lower value

SMILES | cell count
O=C(/C(=C/c1ccc(Cl)cc1)c1nc2ccccc2[nH]1)c1cccs1 | 83.7%
CCOC(=O)Cc1cc(-c2ccc(O)cc2)nc2ccc3ccccc3c12 | 100%
COc1cccc(CSc2nc3ccccc3cc2C=O)c1 | 91.7%
